Measurements from PMC11344719, “Peptidomimetic inhibitors of the VEGF-A165/NRP-1 complex obtained by modification of the C-terminal arginine” (Amino Acids, 2024).
Square brackets hold non-standard residues; d marks the D form. Ends that are not written are not given here. Peptide text beside a SMILES is read from it. Phe(4-CH2NH2) = NCc1ccc(C[C@H](N)C(=O)O)cc1; hArg = N=C(N)NCCCC[C@H](N)C(=O)O; Cit = NC(=O)NCCC[C@H](N)C(=O)O; Agb = N=C(N)NCC[C@H](N)C(=O)O; Agp = N=C(N)NC[C@H](N)C(=O)O; Dab = NCC[C@H](N)C(=O)O; Dap = NC[C@H](N)C(=O)O

Target: NRP1-b1
Assay: not given
Design: method as in Mota et al. 2018
Settings: SPR; ref Mota et al. 2018; cited from earlier work

Compound	Kd
NC(N)=NCCC[C@H](NC(=O)OCc1ccccc1)C(=O)O [Compound D10, Nα-Cbz-Arg-OH]	17 µM
NC(N)=NCCC[C@H](NC(=O)c1ccccc1)C(=O)O [Compound D11, Nα-benzoyl-Arg-OH]	24 µM
CC(C)(C)OC(=O)N[C@@H](CCCN=C(N)N)C(=O)O [Compound D9, Nα-Boc-Arg-OH]	3 µM

System: not given
Assay: not given
Design: method as in Tymecka et al. [2018]
Settings: ref Tymecka et al. [2018]; cited from earlier work

Compound	t½ (stability)
N=C(N)NCCCC[C@H](N)C(=O)NCCCC[C@H](N)C(=O)N[C@@H](CCN)C(=O)N1CCC[C@H]1C(=O)N[C@@H](CCCNC(=N)N)C(=O)O [Compound 2, Lys(Har)-Dab-Pro-Arg] (H-K(hArg)[Dab]PR-OH)	> 24 h
N=C(N)NCCCC[C@H](N)C(=O)NCCCC[C@H](N)C(=O)N[C@@H](CN)C(=O)N1CCC[C@H]1C(=O)N[C@@H](CCCNC(=N)N)C(=O)O [Compound 1, Lys(Har)-Dap-Pro-Arg] (H-K(hArg)[Dap]PR-OH)	> 24 h

Target: T1, VEGF-A165/NRP-1 complex (Homo sapiens, UniProt O14786)
T1 construct: purchased BioLegend (NRP-1); Abcam (biotinylated VEGF-A165)
T1 sequence (O14786 22-641 limits assumed): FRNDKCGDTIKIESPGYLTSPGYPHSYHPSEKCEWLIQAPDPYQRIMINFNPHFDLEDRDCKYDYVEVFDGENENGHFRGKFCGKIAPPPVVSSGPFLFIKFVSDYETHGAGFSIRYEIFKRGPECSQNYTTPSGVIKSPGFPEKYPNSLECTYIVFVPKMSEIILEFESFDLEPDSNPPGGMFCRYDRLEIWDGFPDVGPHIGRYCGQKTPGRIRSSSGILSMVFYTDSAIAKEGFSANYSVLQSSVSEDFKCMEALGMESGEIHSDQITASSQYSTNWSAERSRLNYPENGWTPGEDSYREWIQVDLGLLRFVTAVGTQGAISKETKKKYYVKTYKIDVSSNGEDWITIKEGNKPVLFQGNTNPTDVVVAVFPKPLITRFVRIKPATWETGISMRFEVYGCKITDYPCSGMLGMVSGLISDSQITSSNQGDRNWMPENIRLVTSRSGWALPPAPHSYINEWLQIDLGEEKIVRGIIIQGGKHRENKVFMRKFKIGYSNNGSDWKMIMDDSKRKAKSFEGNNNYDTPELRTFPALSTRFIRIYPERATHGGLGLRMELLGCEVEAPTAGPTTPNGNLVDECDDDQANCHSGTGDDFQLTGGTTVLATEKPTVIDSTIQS
Assay: competitive ELISA: inhibition of (bt)-VEGF-A165 binding to NRP-1
Settings: recombinant human NRP-1; mean ± SD of three independent experiments; tested in the concentrations range 100–3.12 μM
Experimental: Inhibitory activity of the synthesized peptides was measured by a competitive ELISA test, following a protocol similar to the one previously described (Puszko et al. [2019]). […] Nonspecific binding was blocked with 0.5% BSA (BioShop, Canada) in PBS (Bioshop, Canada). Then, 50 μl peptide in PBS in the selected concentrations and 50 μl (400 ng/ml) human […] VEGF-A165 (Abcam, Cambridge, UK) in PBS containing 4 μg/ml heparin (Bioshop, Canada) were added. After 2 h of incubation at RT, the plate was washed and treated with ECL Streptavidin-Horseradish Peroxidase conjugate (GE Healthcare, Little Chalfont, UK) in PBS (1:100) for 45 min. After the final wash the chemiluminescence was quantified immediately after addition of 100 μl chemiluminescent substrate (SuperSignal ELISA Pico Chemiluminescent Substrate; Pierce Biotechnology, Rockford, IL, USA). Wells incubated with (bt)-VEGF-A165 served as a positive control (P), while wells not-coated with NRP-1 were used as a negative control (NS). […] Half-maximal inhibitory concentration (IC50, [μM]) values (mean ± SD of three independent experiments were determined by nonlinear regression analysis (log(inhibitor) vs. normalized response-variable slope) generated in GraphPad Prism 9.0.0 program (Graph Pad, San Diego, CA, USA). In order to verify the accuracy of the design assumptions, a modified competitive enzyme-linked immunosorbent assay (ELISA) was used to evaluate the inhibitory activity of the designed peptidomimetics against VEGF-A165/NRP-1 complex formation. In addition to the parent compounds (1 and 2), heptapeptide […] was used for the sake of comparison.

Compound	IC50
N=C(N)NCCCC[C@H](N)C(=O)NCCCC[C@H](N)C(=O)N[C@@H](CN)C(=O)N1CCC[C@H]1C(=O)N[C@@H](CNC(=N)N)C(=O)O [Compound 7, Lys(Har)-Dap-Pro-Agp] (H-K(hArg)[Dap]P[Agp]-OH)	148 ± 45.9 µM
N=C(N)NCCCC[C@H](N)C(=O)NCCCC[C@H](N)C(=O)N[C@@H](CCN)C(=O)N1CCC[C@H]1C(=O)N[C@@H](Cc1ccc(CN)cc1)C(=O)O [Compound 12, Lys(Har)-Dab-Pro-Phe(4-CH2-NH2)] (H-K(hArg)[Dab]P[Phe(4-CH2NH2)]-OH)	19.8 ± 1.8 µM
N=C(N)NCCCC[C@H](N)C(=O)NCCCC[C@H](N)C(=O)N[C@@H](CCN)C(=O)N1CCC[C@H]1C(=O)N[C@@H](CCCNC(N)=O)C(=O)O [Compound 10, Lys(Har)-Dab-Pro-Cit] (H-K(hArg)[Dab]P[Cit]-OH)	193 ± 20.6 µM
N=C(N)NCCCC[C@H](NC(=O)[C@@H]1CCCN1C(=O)[C@H](CN)NC(=O)[C@@H](N)CCCCNC(=O)[C@@H](N)CCCCNC(=N)N)C(=O)O [Compound 3, Lys(Har)-Dap-Pro-Har] (H-K(hArg)[Dap]P[hArg]-OH)	29.2 ± 1.8 µM
N=C(N)NCCCC[C@H](N)C(=O)NCCCC[C@H](N)C(=O)N[C@@H](CCN)C(=O)N1CCC[C@H]1C(=O)N[C@@H](CCCNC(=N)N)C(=O)O [Compound 2, Lys(Har)-Dab-Pro-Arg] (H-K(hArg)[Dab]PR-OH)	4.7 ± 0.6 µM
N=C(N)NCCCC[C@H](N)C(=O)NCCCC[C@H](N)C(=O)N[C@@H](CN)C(=O)N1CCC[C@H]1C(=O)N[C@@H](CCCNC(N)=O)C(=O)O [Compound 9, Lys(Har)-Dap-Pro-Cit] (H-K(hArg)[Dap]P[Cit]-OH)	170 ± 55.6 µM
ATWLPPR [Compound A7R, Ala-Thr-Trp-Leu-Pro-Pro-Arg]	11.3 ± 3.2 µM
N=C(N)NCCCC[C@H](N)C(=O)NCCCC[C@H](N)C(=O)N[C@@H](CCN)C(=O)N1CCC[C@H]1C(=O)N[C@@H](CCNC(=N)N)C(=O)O [Compound 6, Lys(Har)-Dab-Pro-Agb] (H-K(hArg)[Dab]P[Agb]-OH)	106 ± 17.4 µM
N=C(N)NCCCC[C@H](N)C(=O)NCCCC[C@H](N)C(=O)N[C@@H](CCN)C(=O)N1CCC[C@H]1C(=O)N[C@@H](CNC(=N)N)C(=O)O [Compound 8, Lys(Har)-Dab-Pro-Agp] (H-K(hArg)[Dab]P[Agp]-OH)	165 ± 21.1 µM
N=C(N)NCCCC[C@H](N)C(=O)NCCCC[C@H](N)C(=O)N[C@@H](CN)C(=O)N1CCC[C@H]1C(=O)N[C@@H](Cc1ccc(CN)cc1)C(=O)O [Compound 11, Lys(Har)-Dap-Pro-Phe(4-CH2-NH2)] (H-K(hArg)[Dap]P[Phe(4-CH2NH2)]-OH)	22.8 ± 5.9 µM
N=C(N)NCCCC[C@H](N)C(=O)NCCCC[C@H](N)C(=O)N[C@@H](CN)C(=O)N1CCC[C@H]1C(=O)N[C@@H](CCCNC(=N)N)C(=O)O [Compound 1, Lys(Har)-Dap-Pro-Arg] (H-K(hArg)[Dap]PR-OH)	8.4 ± 1.6 µM
N=C(N)NCCCC[C@H](NC(=O)[C@@H]1CCCN1C(=O)[C@H](CCN)NC(=O)[C@@H](N)CCCCNC(=O)[C@@H](N)CCCCNC(=N)N)C(=O)O [Compound 4, Lys(Har)-Dab-Pro-Har] (H-K(hArg)[Dab]P[hArg]-OH)	14.3 ± 2.3 µM
N=C(N)NCCCC[C@H](N)C(=O)NCCCC[C@H](N)C(=O)N[C@@H](CN)C(=O)N1CCC[C@H]1C(=O)N[C@@H](CCNC(=N)N)C(=O)O [Compound 5, Lys(Har)-Dap-Pro-Agb] (H-K(hArg)[Dap]P[Agb]-OH)	87.5 ± 10.3 µM

System: recombinant rat NRP-1/Fc chimera
Assay: not given
Design: method as in Starzec et al. 2007
Settings: 125I-VEGF, ref Starzec et al. 2007; cited from earlier work

Compound	inhibition at 100 μM
Ala-Thr-Trp-Leu-Pro-Pro-Ala7 (ATWLPPA; printed: Ala-Thr-Trp-Leu-Pro-Pro-Ala) [Compound D3]	17%
Ala-Thr-Trp-Leu-Pro-Pro-Lys7-Ala8 (ATWLPPK; C-terminal Ala8; printed: Ala-Thr-Trp-Leu-Pro-Pro-Lys) [Compound D5]	18%
Ala-Thr-Trp-Leu-Pro-Pro6 (ATWLPP; printed: Ala-Thr-Trp-Leu-Pro-Pro) [Compound D2]	18%
Ala-Thr-Trp-Leu-Pro-Pro-Lys7 (ATWLPPK; printed: Ala-Thr-Trp-Leu-Pro-Pro-Lys) [Compound D4]	20%

System: PAE/NRP1 cells
Assay: not given
Design: method as in Jarvis et al. 2010
Settings: 100 μM; 125I-VEGF; ref Jarvis et al. 2010; cited from earlier work

Compound	inhibition at 100 μM
NC(N)=NCCC[C@H](NC(=O)c1sccc1NS(=O)(=O)c1cccc2nsnc12)C(=O)O [Compound D12]	99%
Lys-Pro-Ala-Arg (KPAR; printed: Lys-Pro-Ala-Arg) [Compound D6]	83%
Lys-Pro-Ala-Lys (KPAK; printed: Lys-Pro-Ala-Lys) [Compound D8]	22%
KPA[dR] [Compound D7]	22%

Same assay, conditions: 125I-VEGF; ref Jarvis et al. 2010; cited from earlier work

Compound	IC50
NC(N)=NCCC[C@H](NC(=O)c1sccc1NS(=O)(=O)c1cccc2nsnc12)C(=O)O [Compound D12]	8 µM
Lys-Pro-Ala-Arg (KPAR; printed: Lys-Pro-Ala-Arg) [Compound D6]	30 µM
